According to PMC3551614 (Journal of the American Chemical Society, 2012):
Where “and” joins values, the source holds several entries; their conditions need not be identical. Equal entries are not always repeated. Where two headings read alike, the source gives them in different places. Marks after values point to notes of the source that are not given here. One block for each molecule: values may come before it. Numbered stars: 1 amine (or outer) side, 2 acyl side, 3 side chain; on linkers, the order of the positions; unused ones are H or OH. Bridge positions count the residues as written; N and C are the ends. Square brackets hold non-standard residues; d marks the D form. Ends that are not written are not given here. Peptide text beside a SMILES is read from it. β3hW = N[C@H](CC(=O)O)Cc1c[nH]c2ccccc12; X1 = O=C([C@H]1CNC[C@@H]1N[*:1])[*:2]; β3hE = N[C@@H](CCC(=O)O)CC(=O)O; β3hN = NC(=O)C[C@H](N)CC(=O)O; β3hL = CC(C)C[C@H](N)CC(=O)O; Nle = CCCC[C@H](N)C(=O)O

Columns and labels:
[1] = target: T1, homodimeric VEGF165 (Homo sapiens, UniProt P15692); assay: competition fluorescence polarization; format: binding
T1 sequence (P15692 1-191 isoform P15692-4): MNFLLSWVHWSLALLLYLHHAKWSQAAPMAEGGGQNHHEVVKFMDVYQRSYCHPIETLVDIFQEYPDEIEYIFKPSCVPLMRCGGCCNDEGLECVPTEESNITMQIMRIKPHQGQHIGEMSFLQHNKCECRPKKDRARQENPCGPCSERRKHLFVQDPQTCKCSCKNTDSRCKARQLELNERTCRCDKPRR

[2] = toxicity control studies; details: at the inhibitory concentrations
[3] = test system: human umbilical vein endothelial cells (HUVECs); assay: VEGF-induced HUVEC proliferation; details: 10 ng/mL VEGF; tested above and below the measured Ki
[4] = target: proteinase K (Parengyodontium album, UniProt P06873); assay: proteinase K degradation; details: for stability to proteinase K relative to v114*: ratio of t1/2 to that of v114*, standard conditions
proteinase K, sequence (P06873 106-384): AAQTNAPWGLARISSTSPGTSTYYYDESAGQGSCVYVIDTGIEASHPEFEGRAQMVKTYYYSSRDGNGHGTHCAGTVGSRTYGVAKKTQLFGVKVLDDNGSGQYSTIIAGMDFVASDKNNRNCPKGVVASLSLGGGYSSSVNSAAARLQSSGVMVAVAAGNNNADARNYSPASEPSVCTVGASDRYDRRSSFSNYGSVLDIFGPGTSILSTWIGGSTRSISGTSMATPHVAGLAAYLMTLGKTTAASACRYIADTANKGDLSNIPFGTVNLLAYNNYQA

[5] = test system: human umbilical vein endothelial cells (HUVECs); details: cited from earlier work
[6] = target: T2, v114 (disulfide 5-15); assay: competition fluorescence polarization
T2 chain: VEPNCDIHVMWEWECFERL

[7] = target: v107; assay: competition

loss of affinity for VEGF (higher Ki) relative to v114* ([1]; ratio of Ki to Ki of v114*): 12 fold
Molecule: CCCC[C@@H]1NC(=O)[C@H](C(C)C)NC(=O)[C@H](Cc2c[nH]cn2)NC(=O)[C@H]([C@@H](C)CC)NC(=O)[C@H](CC(=O)O)NC(=O)[C@@H](NC(=O)[C@H](CC(N)=O)NC(=O)[C@@H]2CCCN2C(=O)C[C@H](CCC(=O)O)NC(=O)[C@@H](N)C(C)C)CSSC[C@@H](C(=O)N[C@@H](Cc2ccccc2)C(=O)N[C@H]2CNC[C@@H]2C(=O)N[C@@H](CCCNC(=N)N)C(=O)N[C@H](CC(N)=O)CC(C)C)NC(=O)[C@H](CCC(=O)O)NC(=O)[C@H](Cc2c[nH]c3ccccc23)NC(=O)C[C@H](CCC(=O)O)NC(=O)[C@H](Cc2c[nH]c3ccccc23)NC1=O [compound 2] (H-V[β3hE]PNCDIHV[Nle]W[β3hE]WECF[X1]R[β3hL]-NH2; disulfide 5-15; N-terminus and C-terminus assumed)

Molecule: CCCC[C@@H]1NC(=O)[C@H](C(C)C)NC(=O)[C@H](Cc2c[nH]cn2)NC(=O)[C@H]([C@@H](C)CC)NC(=O)[C@H](CC(=O)O)NC(=O)[C@@H](NC(=O)C[C@H](CC(N)=O)NC(=O)[C@@H]2CCCN2C(=O)C[C@H](CCC(=O)O)NC(=O)[C@@H](N)C(C)C)CSSC[C@@H](C(=O)N[C@@H](Cc2ccccc2)C(=O)N[C@H]2CNC[C@@H]2C(=O)N[C@@H](CCCNC(=N)N)C(=O)N[C@H](CC(N)=O)CC(C)C)NC(=O)[C@H](CCC(=O)O)NC(=O)[C@H](Cc2c[nH]c3ccccc23)NC(=O)C[C@H](CCC(=O)O)NC(=O)[C@H](Cc2c[nH]c3ccccc23)NC1=O [compound 3] (H-V[β3hE]P[β3hN]CDIHV[Nle]W[β3hE]WECF[X1]R[β3hL]-NH2; disulfide 5-15; N-terminus and C-terminus assumed)
toxicity [2]: not toxic
inhibition of VEGF-stimulated HUVEC proliferation, potency in words [3]: less potent than v114*
principal cleavage site ([4]; proteinase K, mass spectroscopic analysis): between ^nL10 and W11
stability to proteinase K relative to v114* ([4]; proteinase K): 15 fold
loss of affinity for VEGF (higher Ki) relative to v114* ([1]; ratio of Ki to Ki of v114*): 27 fold and ~ 27 fold

Molecule: CCCC[C@@H]1NC(=O)[C@H](C(C)C)NC(=O)[C@H](Cc2c[nH]cn2)NC(=O)[C@H]([C@@H](C)CC)NC(=O)[C@H](CC(=O)O)NC(=O)[C@@H](NC(=O)C[C@H](CC(N)=O)NC(=O)[C@@H]2CCCN2C(=O)C[C@H](CCC(=O)O)NC(=O)[C@@H](N)C(C)C)CSSC[C@@H](C(=O)N[C@@H](Cc2ccccc2)C(=O)N[C@H]2CNC[C@@H]2C(=O)N[C@@H](CCCNC(=N)N)C(=O)N[C@H](CC(N)=O)CC(C)C)NC(=O)[C@H](CCC(=O)O)NC(=O)[C@H](Cc2c[nH]c3ccccc23)NC(=O)C[C@H](CCC(=O)O)NC(=O)C[C@H](Cc2c[nH]c3ccccc23)NC1=O [compound 4] (H-V[β3hE]P[β3hN]CDIHV[Nle][β3hW][β3hE]WECF[X1]R[β3hL]-NH2; disulfide 5-15; N-terminus and C-terminus assumed)
toxicity [2]: not toxic
inhibition of VEGF-stimulated HUVEC proliferation, potency in words [3]: less potent than v114*
resistance to proteolysis relative to 3 [4]: > 10 fold
stability to proteinase K relative to v114* ([4]; proteinase K): ~190 fold
affinity for VEGF lower than that of 3 [1]: ~ 3 fold
loss of affinity for VEGF (higher Ki) relative to v114* [1]: ~ 77 fold

Molecule: CC[C@H](C)[C@@H]1NC(=O)[C@H](CC(=O)O)NC(=O)[C@@H](NC(=O)[C@H](CC(N)=O)NC(=O)[C@@H]2CCCN2C(=O)[C@H](CCC(=O)O)NC(=O)[C@@H](N)C(C)C)CSSC[C@@H](C(=O)N[C@@H](Cc2ccccc2)C(=O)N[C@@H](CCC(=O)O)C(=O)N[C@@H](CCCNC(=N)N)C(=O)N[C@@H](CC(C)C)C(N)=O)NC(=O)[C@H](CCC(=O)O)NC(=O)[C@H](Cc2c[nH]c3ccccc23)NC(=O)[C@H](CCC(=O)O)NC(=O)[C@H](Cc2c[nH]c3ccccc23)NC(=O)[C@H](CCSC)NC(=O)[C@H](C(C)C)NC(=O)[C@H](Cc2c[nH]cn2)NC1=O [v114] (H-VEPNCDIHVMWEWECFERL-NH2; disulfide 5-15; N-terminus and C-terminus assumed)
inhibition of VEGF-induced HUVEC proliferation [5]: inhibits

Ki [6]: 70 nM
Ki [7]: 600 nM
B1: VEGF165 VEGF165 (protein)
chain: APMAEGGGQNHHEVVKFMDVYQRSYCHPIETLVDIFQEYPDEIEYIFKPSCVPLMRCGGCCNDEGLECVPTEESNITMQIMRIKPHQGQHIGEMSFLQHNKCECRPKKDRARQEKKSVRGKGKGQKRKRKKSRYKSWSVPCGPCSERRKHLFVQDPQTCKCSCKNTDSRCKARQLELNERTCRCDKPRR
